Measured values taken from patent publication US12280148B2, “Composition for promoting extracellular vesicle production containing peptide derived from noxa protein and method for producing extracellular vesicles by using same” (Exocalibre Therapeutics Co., Ltd., priority 2020, dated 2025).

Experiments:
Type in all cases: cell-based, human
293-HEK cell line [1] = experiment: Loading of recombinant TRAIL protein in extracellular vesicles, SDS-acrylamide gel; settings: Recombinant TRAIL + (2 μg/ml), Peptide + (25 μM), solution of Example 1
Procedure: After the 293-HEK cell line was cultured to 90% confluency in a 6-well plate, the culture was removed, and the cell line was treated with the eMTDΔ4 peptide (final concentration: 25 μM) and the recombinant TRAIL, which have been dissolved to concentrations of 25 μM and 2 μg/ml in the solution of Example 1, respectively. The supernatant was collected, and PEG (final concentration: 8%) was added, followed by centrifugation at an RCF of 12000 for 10 minutes, thereby settling extracellular vesicles, and the extracellular vesicles were loaded on the SDS-acrylamide gel to check the TRAIL protein.

293-HEK cell line [2] = experiment: Extracellular vesicle output quantified by Bradford solution
Procedure: The 293-HEK cell line was cultured in a 6-well plate at a rate of 2×10^5 cells/mL, and the next day, the cell line was treated with the solution of Example 1 and a peptide of any one of SEQ ID NOs: 1 to 21. […], the solution was removed, followed by centrifugation at an RCF of 12000, and the extracellular vesicles were quantified using the supernatant by Bradford solution.

HeLa cell line [3] = experiment: Production of extracellular vesicles, observed by optical microscope (bright field); settings: solution of Example 1 (250 mM sucrose), peptide final concentration 20 μM, after 10 minutes
Procedure: After the HeLa cell line was cultured in a 6-well plate, the culture was removed, and then the HeLa cell line was treated with the solution in Example 1.
The control group was not treated with any peptide, and the experiment group was treated with eMTDΔ4 peptide of SEQ ID NO: 2 (final concentration: 20 μM). After 10 minutes, the generation of extracellular vesicles was observed by an optical microscope (bright field), and the observation results are shown in FIG. 1.
Extracellular vesicle production was carried out by the experimental method of Experimental Example 2-1 using the R(8):MTD peptide of SEQ ID NO: 4 and the solutions of Example 1 and Comparative Examples 1 to 18, and the results are shown in FIGS. 2A to 2S.
Extracellular vesicle production was carried out by the experimental method of Example 2-1 using the R(8):MTD peptide of SEQ ID NO: 4 and the solutions of Examples 1 to 3 on Table 3, and the results are shown in FIGS. 3A to 3C.

HeLa cell line [4] = experiment: Extracellular vesicle morphology, EGFP-HSP90 transfected cells, confocal microscope; settings: HeLa transfected with pEGFP-HSP90; solution of Example 1; 20 μM; after 10 minutes
Procedure: In order to transfect the HSP90 protein, an exosome indicator, into the HeLa cell line, the HeLa cell line was cultured overnight in a 6-well plate, and then treated with a plasmid into which Effectene and pEGFP-HSP90 were cloned, and after 4 hours, the culture was replaced.
The next day, the culture was removed from the HeLa cell line, and the solution of Example 1 was added. A control group was not treated with any peptide, and an experiment group was treated with the eMTDΔ4 peptide of SEQ ID NO: 2 (final concentration: 20 μM). The HSP90 protein was excited using an argon laser of 488 nm. After 10 minutes, the control group and the experiment group were observed using a confocal microscope (Leica TCS SP5 Microsystems), and the results are shown in FIG. 4.

HeLa cell line [5] = experiment: Loading of propidium iodide (PI) in extracellular vesicles, confocal microscope; settings: HeLa transfected with HSP90; peptide 25 μM; 5 μg/ml PI; solution of Example 1; after 10 minutes
Procedure: Propidium iodide (PI), which is a drug poorly passing through cell membranes, is a fluorescent substance capable of being used to stain cells. First, the HSP90 protein was transfected into the HeLa cell line to prepare a cell line.
(§1) The control group was treated with only PI without any peptide, and the experiment group was treated with the eMTDΔ4 peptide (final concentration: 25 μM) and 5 μg/ml PI, which have been in combination dissolved in the solution of Example 1, and then after 10 minutes, the groups were observed by a confocal microscope.

HeLa cell line [6] = experiment: Loading of doxorubicin in extracellular vesicles, confocal microscope; settings: HeLa expressing EGFP-HSP90; peptide 25 μM; doxorubicin 100 μM; solution of Example 1; after 10 minutes
Procedure: Doxorubicin, which is a drug passing through cell membranes well, is used to treat cancers, such as breast cancer, bladder cancer, Kaposi's sarcoma, lymphoma, or acute lymphoblastic leukemia. First, the HeLa cell line was cultured in a 12-well plate overnight, then transfected with a plasmid expressing EGFP-HSP90 using effectene, and then the culture was replaced after 4 hours. The next day, the culture was removed from the HeLa cell line to prepare a cell line.
as §1, with “doxorubicin” for “PI”, “doxorubicin (final concentration: 100 μM),” for “5 μg/ml PI,”, “been” for “been in combination”

293-HEK cell line [7] = experiment: Extracellular vesicle size and quantity by Nanoparticle Tracking Analysis (NTA); settings: 50-fold diluted, solution of Example 1, peptide 20 μm, after 20 minutes
Procedure: After the 293-HEK cell line was cultured to 90% confluency (about 2×10^7 cells) in a 10-cm culture dish, the culture was removed, and the cells were treated with the eMTDΔ4 peptide (final concentration: 20 μm), which has been dissolved in 5 ml of the solution of Example 1. After 20 minutes, the solution was removed, followed by centrifugation at an RCF of 12000, and then the size and quantity of extracellular vesicles were measured using a Nanoparticle Tracking Analysis (NTA) system (Nanosight LM10, Malvern Instruments).

293-HEK cell line [8] = experiment: Loading of plasmid DNA in extracellular vesicles, agarose gel electrophoresis; settings: peptide 25 μM, PUC19 3 μg/ml, EGFP-C1 6 μg/ml, solution of Example 1
Procedure: After the 293-HEK cell line was cultured to 90% confluency in a 6-well plate, the culture was removed, and the cell line was treated with the eMTDΔ4 peptide (final concentration: 25 μM) and plasmid DNA (PUC19 3 μg/ml, EGFP-C1 6 μg/ml), which have been dissolved in the solution of Example 1.
1.15 ml of the supernatant was collected and 0.35 ml of Qiagen buffer P3 was added, thereby making a total volume of 1.5 ml, of which 0.75 ml was then passed through the DNA miniprep column (Qiagen), and the passed solution was purified with phenol and precipitated with ethanol.
After 30 μl of DNA bound to the column and 30 μl of DNA precipitated with ethanol were dissolved in water, 10 μl of DNA bound to the column and 10 μl of DNA precipitated with ethanol were subjected to agarose gel electrophoresis, and then stained with EtBr.

HeLa cell line [9] = experiment: Extracellular vesicle production, mEmerald-CD9 / mCherry-CD81 transfected cells, confocal imaging every 2 seconds; settings: solution of Example 1, 20 μM
Procedure: The HeLa cell line was cultured in a 12-well plate overnight, and in order to identify the CD9 protein, an extracellular vesicle indicator, the HeLa cell line was treated with a plasmid into which Effectene and mEmerald-CD9 were cloned, and after 4 hours, the culture was replaced.
The next day, the culture was removed from the HeLa cell line, and the HeLa cell line was treated with the solution of Example 1. After each HeLa cell line was treated with the eMTDΔ4 peptide (final concentration: 20 μM), a laser having a wavelength of 488 nm was used to excite mEmerald-CD9.
In order to identify the CD81 protein, an extracellular vesicle indicator, the same procedure as in the method for observing the CD9 protein was performed except that the HeLa cells were treated with a plasmid into which mCherry-CD81 instead of mEmerald-CD9 was cloned and mCherry-CD81 was excited using a laser having a wavelength of 561 nm, and the results are shown in FIG. 5B.

Sequence: KLNFRQKLLNLISKLF (eMTDdelta4) [eMTDΔ4, Noxa protein-derived peptide, 16aa]
- Protein detected or not (TRAIL in extracellular vesicles) (293-HEK cell line [1]): ◯
- Amount of proteins contained in extracellular vesicles (293-HEK cell line [2]; solution of Example 1, peptide 10 μM): 4.93 µg/µL
- Amount of proteins contained in extracellular vesicles (293-HEK cell line [2]; solution of Example 1, peptide 20 μM): 6.40 µg/µL
- Amount of proteins contained in extracellular vesicles (293-HEK cell line [2]; solution of Example 1, peptide 40 μM): 7.56 µg/µL
- generation of extracellular vesicles (HeLa cell line [3]): small extracellular vesicle particles were formed and settled on the bottom of the plate
- cell morphology (HeLa cell line [4]): the cell morphology was damaged
- extracellular vesicles containing HSP90 protein (HeLa cell line [4]): extracellular vesicles containing the HSP90 protein were settled on the bottom of the plate
- loading of propidium iodide (PI) in extracellular vesicles (HeLa cell line [5]): the generated extracellular vesicles contained PI as well as the HSP90 protein
- loading of doxorubicin in extracellular vesicles (HeLa cell line [6]): the generated extracellular vesicles contained doxorubicin as well as the HSP90 protein
- Quantity of extracellular vesicles (293-HEK cell line [7]): 7.44e+08 ± 6.51e+07 mL⁻¹
- loading of plasmid DNA in extracellular vesicles (293-HEK cell line [8]): can be loaded in the extracellular vesicles
- time to release of extracellular vesicles to the extracellular matrix (HeLa cell line [9]): within a few seconds after generation
- release of CD9 and CD81 proteins (extracellular vesicle indicators) (HeLa cell line [9]; observed for 10 minutes): CD9 and CD81 proteins were released into the extracellular matrix
